Laboratory results reported in PubChem BioAssay (NCI).
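Method: 48-hour compound exposure of cells in 96-well plates, five concentrations, linear interpolation of endpoints. The concentration for 50% growth inhibition is given as GI50. TGI is the concentration that stops growth completely.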

What was measured:
Assay in all cases: NCI tumour cell line growth inhibition, 48 h
[1] = system: UO-31 renal
[2] = system: ACHN renal
[3] = system: PC-3 prostate
[4] = system: HS 578T breast
[5] = system: SK-MEL-2 melanoma
[6] = system: HOP-92 NSCLC
[7] = system: SNB-75 CNS
[8] = system: SN12C renal
[9] = system: M14 melanoma
[10] = system: NCI-H226 lung
[11] = system: SR leukemia
[12] = system: HOP-62 NSCLC
[13] = system: SK-OV-3 ovarian
[14] = system: A498 renal
[15] = system: OVCAR-3 ovarian
[16] = system: CAKI-1 renal
[17] = system: K-562 leukemia
[18] = system: OVCAR-8 ovarian
[19] = system: UACC-62 melanoma
[20] = system: DU-145 prostate
[21] = system: UACC-257 melanoma
[22] = system: SF-295 CNS
[23] = system: NCI/ADR-RES ovarian
[24] = system: RXF 393 renal
[25] = system: MDA-MB-231 breast
[26] = system: SK-MEL-5 melanoma
[27] = system: MDA-MB-435
[28] = system: BT-549 breast
[29] = system: HL-60(TB) leukemia
[30] = system: SF-268 CNS
[31] = system: SF-539 CNS
[32] = system: 786-0 renal
[33] = system: OVCAR-5 ovarian
[34] = system: TK-10 renal
[35] = system: SNB-19 CNS
[36] = system: HCC-2998 colon
[37] = system: KM12 colon
[38] = system: MALME-3M melanoma
[39] = system: NCI-H23 lung
[40] = system: SK-MEL-28 melanoma
[41] = system: LOX IMVI melanoma
[42] = system: CCRF-CEM leukemia
[43] = system: NCI-H460 lung
[44] = system: NCI-H522 lung
[45] = system: SW-620 colon
[46] = system: A549 NSCLC
[47] = system: HT29 colon
[48] = system: COLO 205 colon
[49] = system: RPMI-8226 leukemia
[50] = system: HCT-15 colon
[51] = system: IGROV1 ovarian

Compound: C1CCC([PH+](C2CCCCC2)C2CCCCC2[PH+](C2CCCCC2)C2CCCCC2)CC1.O=C(C1[CH-]CCCC1)C1CCCC[N-]1.[Au] (centres undefined)
- GI50 [1]: 1.45 µM
- TGI [1]: 2.76 µM
- GI50 [2]: 0.92 µM
- TGI [2]: 2.12 µM
- GI50 [3]: 0.218 µM
- TGI [3]: 3.8 µM
- GI50 [4]: 0.225 µM
- TGI [4]: 1.56 µM
- GI50 [5]: 0.379 µM
- TGI [5]: 2.02 µM
- GI50 [6]: 0.22 µM
- TGI [6]: 0.89 µM
- GI50 [7]: 0.179 µM
- TGI [7]: 1.05 µM
- GI50 [8]: 0.262 µM
- TGI [8]: 2.81 µM
- GI50 [9]: 0.26 µM
- TGI [9]: 1.4 µM
- GI50 [10]: 0.455 µM
- TGI [10]: 2.43 µM
- GI50 [11]: 0.329 µM
- TGI [11]: > 100 µM
- GI50 [12]: 0.323 µM
- TGI [12]: 2.96 µM
- GI50 [13]: 0.33 µM
- TGI [13]: 1.4 µM
- GI50 [14]: 0.0757 µM
- TGI [14]: 0.584 µM
- GI50 [15]: 0.272 µM
- TGI [15]: 1.19 µM
- GI50 [16]: 1.07 µM
- TGI [16]: 2.72 µM
- GI50 [17]: 0.194 µM
- TGI [17]: > 100 µM
- GI50 [18]: 0.245 µM
- TGI [18]: > 100 µM
- GI50 [19]: 0.226 µM
- TGI [19]: 0.835 µM
- GI50 [20]: 0.298 µM
- TGI [20]: 1.61 µM
- GI50 [21]: 0.337 µM
- TGI [21]: 3.36 µM
- GI50 [22]: 0.262 µM
- TGI [22]: 1.09 µM
- GI50 [23]: 1.8 µM
- TGI [23]: > 100 µM
- GI50 [24]: 0.317 µM
- TGI [24]: 1.38 µM
- GI50 [25]: 0.223 µM
- TGI [25]: 0.713 µM
- GI50 [26]: 0.252 µM
- TGI [26]: 0.661 µM
- GI50 [27]: 0.229 µM
- TGI [27]: 0.704 µM
- GI50 [28]: 0.261 µM
- TGI [28]: 1.5 µM
- GI50 [29]: 0.249 µM
- TGI [29]: 0.731 µM
- GI50 [30]: 0.343 µM
- TGI [30]: 1.91 µM
- GI50 [31]: 0.31 µM
- TGI [31]: 1.28 µM
- GI50 [32]: 0.413 µM
- TGI [32]: 1.85 µM
- GI50 [33]: 0.343 µM
- TGI [33]: 1.53 µM

Compound: Nc1ccc(-c2nc3ccc(Cc4ccc5nc(-c6ccc(N)cc6)[nH]c5c4)cc3[nH]2)cc1
- GI50 [1]: 45.4 µM
- TGI [1]: > 100 µM
- GI50 [2]: 17.9 µM
- TGI [2]: 37.5 µM
- GI50 [3]: 4.25 µM
- TGI [3]: 20.1 µM
- GI50 [4]: 13 µM
- TGI [4]: 39.5 µM
- GI50 [34]: 24.4 µM
- TGI [34]: 43.3 µM
- GI50 [5]: 12.6 µM
- TGI [5]: 35.4 µM
- GI50 [6]: 16.5 µM
- TGI [6]: 39 µM
- GI50 [7]: 12.3 µM
- TGI [7]: 28.9 µM
- GI50 [8]: 8.75 µM
- TGI [8]: 29 µM
- GI50 [10]: 8.06 µM
- TGI [10]: 36.9 µM
- GI50 [11]: 1.48 µM
- TGI [11]: > 100 µM
- GI50 [12]: 6.53 µM
- TGI [12]: 35 µM
- GI50 [35]: 3.24 µM
- TGI [35]: 18.2 µM
- GI50 [13]: 18.9 µM
- TGI [13]: 40.6 µM
- GI50 [36]: 2.84 µM
- TGI [36]: 12.1 µM
- GI50 [37]: 1.37 µM
- TGI [37]: 3.05 µM
- GI50 [38]: 2.04 µM
- TGI [38]: 4.53 µM
- GI50 [14]: 0.855 µM
- TGI [14]: 21.4 µM
- GI50 [15]: 1.76 µM
- TGI [15]: 3.31 µM
- GI50 [39]: 3.83 µM
- TGI [39]: 22.3 µM
- GI50 [16]: 45.6 µM
- TGI [16]: > 100 µM
- GI50 [40]: 1.93 µM
- TGI [40]: 4.27 µM
- GI50 [41]: 2.28 µM
- TGI [41]: 5.32 µM
- GI50 [42]: 2.12 µM
- TGI [42]: 6.7 µM
- GI50 [18]: 2.48 µM
- TGI [18]: 6.58 µM
- GI50 [19]: 3.59 µM
- TGI [19]: 17.8 µM
- GI50 [20]: 11.1 µM
- TGI [20]: 24.2 µM
- GI50 [21]: 20.6 µM
- TGI [21]: 45.7 µM
- GI50 [22]: 12.8 µM
- TGI [22]: 32.4 µM
- GI50 [43]: 14.4 µM
- TGI [43]: 37.1 µM
- GI50 [44]: 1.97 µM
- TGI [44]: 4.87 µM
- GI50 [45]: 1.8 µM
- TGI [45]: 3.46 µM
- GI50 [23]: > 100 µM
- TGI [23]: > 100 µM
- GI50 [24]: 15.7 µM
- TGI [24]: 42.9 µM
- GI50 [25]: 2.14 µM
- TGI [25]: 5.18 µM
- GI50 [26]: 5.22 µM
- TGI [26]: 34.1 µM
- GI50 [46]: 20.8 µM
- TGI [46]: 57.7 µM
- GI50 [47]: 1.89 µM
- TGI [47]: 4.1 µM
- GI50 [27]: 1.45 µM
- TGI [27]: 3.67 µM
- GI50 [48]: 1.65 µM
- TGI [48]: 3.2 µM
- GI50 [28]: 9.86 µM
- TGI [28]: 67.2 µM
- GI50 [49]: 25.7 µM
- TGI [49]: > 100 µM
- GI50 [29]: 10.4 µM
- TGI [29]: 36.9 µM
- GI50 [50]: 14.8 µM
- TGI [50]: 47.9 µM
- GI50 [30]: 4.23 µM
- TGI [30]: 26.9 µM
- GI50 [31]: 1.91 µM
- TGI [31]: 3.91 µM
- GI50 [51]: 16.9 µM
- TGI [51]: 39.8 µM
- GI50 [32]: 4.52 µM
- TGI [32]: 31.6 µM
- GI50 [33]: 12 µM
- TGI [33]: 30 µM
